From the NIST ThermoML archive (doi:10.1007/s10765-007-0223-x)
Numbers after ± are expanded uncertainties.

Experiment: xn = mol fraction of the nth substance listed
Conditions: 101 kPa, Liquid; for speed of sound: Single path-length method

COC(C)(C)C [2-methoxy-2-methylpropane] + Cc1ccccc1
Conditions	mass density [kg/m3]	speed of sound [m/s]
305.65 K, x1 = 0.053	848.195 ± 0.42	–
305.65 K, x1 = 0.116	840.022 ± 0.43	–
305.65 K, x1 = 0.199	829.282 ± 0.45	–
305.65 K, x1 = 0.301	816.062 ± 0.47	–
305.65 K, x1 = 0.371	807.159 ± 0.48	–
305.65 K, x1 = 0.463	795.249 ± 0.49	–
305.65 K, x1 = 0.61	776.592 ± 0.52	–
305.65 K, x1 = 0.688	766.747 ± 0.54	–
305.65 K, x1 = 0.797	752.961 ± 0.56	–
305.65 K, x1 = 0.902	739.7 ± 0.57	–
305.65 K, x1 = 0.943	734.343 ± 0.58	–
305.65 K, x1 = 1	726.444 ± 0.58	–
308.15 K, x1 = 0.053	845.842 ± 0.42	1245.8 ± 2.1
308.15 K, x1 = 0.116	837.654 ± 0.43	1228.3 ± 2.1
308.15 K, x1 = 0.199	826.891 ± 0.45	1207.5 ± 2.1
308.15 K, x1 = 0.301	813.64 ± 0.47	1180.9 ± 2.1
308.15 K, x1 = 0.371	804.72 ± 0.48	1161.8 ± 2.1
308.15 K, x1 = 0.463	792.78 ± 0.5	1137.8 ± 2.1
308.15 K, x1 = 0.61	774.07 ± 0.52	1098.8 ± 2.1
308.15 K, x1 = 0.688	764.201 ± 0.54	1077.9 ± 2.1
308.15 K, x1 = 0.797	750.369 ± 0.56	1049 ± 2.1
308.15 K, x1 = 0.902	737.069 ± 0.58	1020.4 ± 2.1
308.15 K, x1 = 0.943	731.692 ± 0.59	1008 ± 2.1
308.15 K, x1 = 1	723.763 ± 0.58	990.99 ± 2.1
310.65 K, x1 = 0.053	843.486 ± 0.43	1235.2 ± 2.1
310.65 K, x1 = 0.116	835.279 ± 0.44	1217.6 ± 2.1
310.65 K, x1 = 0.199	824.494 ± 0.45	1196.7 ± 2.1
310.65 K, x1 = 0.301	811.214 ± 0.47	1170.1 ± 2.1
310.65 K, x1 = 0.371	802.273 ± 0.48	1150.9 ± 2.1
310.65 K, x1 = 0.463	790.303 ± 0.5	1126.8 ± 2.1
310.65 K, x1 = 0.61	771.541 ± 0.53	1087.7 ± 2.1
310.65 K, x1 = 0.688	761.642 ± 0.54	1066.9 ± 2.1
310.65 K, x1 = 0.797	747.769 ± 0.56	1037.9 ± 2.1
310.65 K, x1 = 0.902	734.423 ± 0.58	1009.1 ± 2.1
310.65 K, x1 = 0.943	729.029 ± 0.59	996.73 ± 2.1
310.65 K, x1 = 1	721.069 ± 0.59	979.62 ± 2.1
313.15 K, x1 = 0.053	841.124 ± 0.43	1224.5 ± 2.1
313.15 K, x1 = 0.116	832.902 ± 0.44	1207 ± 2.1
313.15 K, x1 = 0.199	822.092 ± 0.46	1186 ± 2.1
313.15 K, x1 = 0.301	808.78 ± 0.47	1159.3 ± 2.1
313.15 K, x1 = 0.371	799.819 ± 0.49	1140.1 ± 2.1
313.15 K, x1 = 0.463	787.815 ± 0.51	1115.9 ± 2.1
313.15 K, x1 = 0.61	769.004 ± 0.53	1076.7 ± 2.1
313.15 K, x1 = 0.688	759.075 ± 0.55	1055.9 ± 2.1
313.15 K, x1 = 0.797	745.157 ± 0.57	1026.8 ± 2.1
313.15 K, x1 = 0.902	731.765 ± 0.59	997.95 ± 2.1
313.15 K, x1 = 0.943	726.353 ± 0.6	985.49 ± 2.1
313.15 K, x1 = 1	718.357 ± 0.59	968.16 ± 2.1
315.65 K, x1 = 0.053	838.757 ± 0.43	1214 ± 2.1
315.65 K, x1 = 0.116	830.517 ± 0.45	1196.4 ± 2.1
315.65 K, x1 = 0.199	819.682 ± 0.46	1175.3 ± 2.1
315.65 K, x1 = 0.301	806.341 ± 0.48	1148.5 ± 2.1
315.65 K, x1 = 0.371	797.359 ± 0.49	1129.3 ± 2.1
315.65 K, x1 = 0.463	785.32 ± 0.51	1105 ± 2.1
315.65 K, x1 = 0.61	766.457 ± 0.54	1065.8 ± 2.1
315.65 K, x1 = 0.688	756.499 ± 0.55	1044.9 ± 2.1
315.65 K, x1 = 0.797	742.532 ± 0.57	1015.6 ± 2.1
315.65 K, x1 = 0.902	729.096 ± 0.59	986.8 ± 2.1
315.65 K, x1 = 0.943	723.661 ± 0.6	974.25 ± 2.1
315.65 K, x1 = 1	715.636 ± 0.6	956.8 ± 2.1
318.15 K, x1 = 0.053	836.384 ± 0.44	1203.4 ± 2.1
318.15 K, x1 = 0.116	828.127 ± 0.45	1185.8 ± 2.1
318.15 K, x1 = 0.199	817.267 ± 0.46	1164.7 ± 2.1
318.15 K, x1 = 0.301	803.893 ± 0.48	1137.8 ± 2.1
318.15 K, x1 = 0.371	794.887 ± 0.49	1118.5 ± 2.1
318.15 K, x1 = 0.463	782.821 ± 0.51	1094.2 ± 2.1
318.15 K, x1 = 0.61	763.899 ± 0.54	1054.8 ± 2.1
318.15 K, x1 = 0.688	753.908 ± 0.55	1033.8 ± 2.1
318.15 K, x1 = 0.797	739.897 ± 0.57	1004.6 ± 2.1
318.15 K, x1 = 0.902	726.409 ± 0.59	975.59 ± 2.1
318.15 K, x1 = 0.943	720.958 ± 0.6	963 ± 2.1
318.15 K, x1 = 1	712.897 ± 0.6	945.54 ± 2.1
320.65 K, x1 = 0.053	834.008 ± 0.44	1192.9 ± 2.1
320.65 K, x1 = 0.116	825.73 ± 0.45	1175.2 ± 2.1
320.65 K, x1 = 0.199	814.847 ± 0.47	1154.1 ± 2.1
320.65 K, x1 = 0.301	801.438 ± 0.49	1127 ± 2.1
320.65 K, x1 = 0.371	792.407 ± 0.5	1107.7 ± 2.1
320.65 K, x1 = 0.463	780.31 ± 0.52	1083.4 ± 2.1
320.65 K, x1 = 0.61	761.327 ± 0.54	1043.8 ± 2.1
320.65 K, x1 = 0.688	751.303 ± 0.56	1022.8 ± 2.1
320.65 K, x1 = 0.797	737.246 ± 0.58	993.5 ± 2.1
320.65 K, x1 = 0.902	723.713 ± 0.6	964.4 ± 2.1
320.65 K, x1 = 0.943	718.237 ± 0.61	951.77 ± 2.1
320.65 K, x1 = 1	710.141 ± 0.6	934.24 ± 2.1
323.15 K, x1 = 0.053	831.624 ± 0.44	1182.4 ± 2.1
323.15 K, x1 = 0.116	823.329 ± 0.46	1164.6 ± 2.1
323.15 K, x1 = 0.199	812.42 ± 0.47	1143.5 ± 2.1
323.15 K, x1 = 0.301	798.979 ± 0.49	1116.4 ± 2.1
323.15 K, x1 = 0.371	789.92 ± 0.5	1097 ± 2.1
323.15 K, x1 = 0.463	777.787 ± 0.52	1072.5 ± 2.1
323.15 K, x1 = 0.61	758.745 ± 0.55	1032.9 ± 2.1
323.15 K, x1 = 0.688	748.686 ± 0.56	1011.9 ± 2.1
323.15 K, x1 = 0.797	734.592 ± 0.58	982.48 ± 2.1
323.15 K, x1 = 0.902	721 ± 0.6	953.28 ± 2.1
323.15 K, x1 = 0.943	715.503 ± 0.61	940.59 ± 2.1
323.15 K, x1 = 1	707.381 ± 0.61	922.97 ± 2.1
